Assay results from patent US11066421B1, “Synthetic cinchona alkaloids against cancer” (Ares Pharmaceuticals, LLC, priority 2021, dated 2021).

Legend:
[1] = tested on: M24-MET human melanoma cells; assay: CB.17 SCID mouse xenograft model of human malignant melanoma; format: in vivo; conditions: 5 mg/kg i.p. twice daily, 5 days on 2 days off
Experimental: Cell Lines. Human melanoma cell line M24-MET (ATCC CRL-12270) was obtained from American Type Culture Collection (Rockville, Md.) and maintained as a continuous cell line in DMEM supplemented with 10% fetal calf serum (FCS), 4 mm glutamine, 100 units/ml penicillin G, and […] streptomycin sulfate. All of the tissue culture reagents were obtained from Life Technologies, Inc. Inc. (Gaithersburg, Md.).
Mice. Female CB.17 SCID mice were obtained from Taconic (Germantown, N.Y.) and housed in a specific-pathogen-free room located in a secure indoor facility with controlled temperature, humidity, and noise levels. Mice were housed in micro-isolator cages and fed with autoclaved rodent chow. Water was also autoclaved and supplemented with trimethoprim/sulfamethoxazol 3 days a week. […]
SCID Mouse Model of Human Malignant Melanoma. […] The size of subcutaneous tumors were measured on day 14 and day 16 to evaluate the ability of AP-1 to inhibit tumor growth in this SCID mouse xenograft model of melanoma. Tumor volumes were calculated using the formula for the volume of a prolate spheroid, V=4/3×3.14×length/2×width/2×depth/2.

[2] = tested on: leukemia-initiating ALL xenograft cells; assay: Leukemia-initiating ALL xenograft cells treated in vitro and reinjected into NOD/SCID mice; format: in vivo, human; conditions: for spleen leukemia burden (nucleated spleen cell count) / spleen size (mean±SE): NOD/SCID mice sacrificed at 85 days
Experimental: Patient derived xenograft mouse models have predictive value for clinical responses (Xu C, Li X, Liu P, Li M and Luo F: Patient-derived xenograft mouse models: A high fidelity tool for individualized medicine (Review). Oncol Lett 17: 3-10, 2019). Xenograft clones isolated from spleens of NOD/SCID mice that developed overt leukemia after inoculation with primary leukemia cells from a B-lineage ALL patient were treated for 24 hours at 37° C. with one of two concentrations of AP-5 (1 μM or 3 μM in phosphate buffered saline [PBS] with 2% DMSO) or vehicle (PBS with 2% DMSO) and then reinjected into NOD/SCID mice (Control group: 9 mice; AP-5 groups: 8 mice per concentration level). Mice were monitored for signs of leukemia, and all mice in a given experiment were sacrificed when any mouse developed morbidity. The animal research in mice was conducted according to approved local IACUC protocols. All animal care procedures conformed to the Guide for the Care and Use of Laboratory Animals (National Research Council, National Academy Press, Washington D.C., USA. Revised 1996). Leukemia cells isolated from deidentified patient specimens were used in the described experiments.
Eight of the 9 control mice challenged with vehicle-treated xenograft cells developed leukemia between 81 and 85 days. All remaining mice were also sacrificed at 85 days. The spleen size and spleen leukemia burden were compared using previously published procedures (F. M. Uckun et al., 2015, J Clin Invest. 125:1006-18). […] The nucleated spleen cell count in these leukemic mice ranged from 192×10^6 to 940×10^6 (median: 576×10^6). The mean±SE values for all 9 control mice was 3.2±0.2 cm for the spleen size and 536.39±94.45×10^6 cells for the spleen leukemia burden (FIG. 4). By comparison, the spleens of mice inoculated with xenograft cells treated with AP-5 at a concentration of 1 μM (mean±SE=1.5±0.1 cm) (P=0.0011) or 3 μM (mean±SE=1.5±0.0 cm) (P=0.0018) were much smaller and contained substantially fewer cells (1 μM group: 7.95±1.11×10^6 cells/P=0.0104; 3 μM group: 5.84±1.07×10^6 cells/P=0.00002). […] FIG. 4 illustrates that AP-5 abrogates the ability of leukemia-initiating ALL xenograft cells to cause leukemia in NOD/SCID mice. The depicted Whisker plots in FIG. 4 represent the median and values (Min to Max. all data points are shown) for spleen size (A), and spleen leukemia burden (B). Kruskall Wallis and Dunn's multiple comparisons test were used for comparing the results among different groups (p<0.05). Statistical significance between groups is shown by the depicted p-values.

[3] = xenograft cells treated 24 h with 1 μM
[4] = xenograft cells treated 24 h with 3 μM

Compound	tumor progression [1]	average tumor volume ([1]; day 16, from day 7) [mm3]	ability of xenograft cells to initiate leukemia in NOD/SCID mice ([2]; low micromolar concentration (1 or 3 μM))	spleen leukemia burden (nucleated spleen cell count) [2, 3]	spleen size (mean±SE) [2, 3] [cm]	spleen leukemia burden (nucleated spleen cell count) [2, 4]	spleen size (mean±SE) [2, 4] [cm]
C=CC1CN2CCC1CC2C(Oc1cc(OC(c2ccnc3ccccc23)C2CC3CCN2CC3C=C)nc(OC(c2ccnc3ccccc23)C2CC3CCN2CC3C=C)n1)c1ccnc2ccccc12 (stereo not shown) [AP-1, 2,4,6-Tri(9-O-cinchoninyl)pyrimidine]	significantly slowed down the tumor progression	484.3±76.5	–	–	–	–	–
2,4,6-Tri (9-O-dihydrocinchoninyl)pyrimidine [AP-5]	–	–	capable of abrogating the ability of the putative leukemic stem cell subpopulation of BPL xenograft cells to initiate leukemia	7.95±1.11 ×10^6 cells	1.5±0.1	5.84±1.07 ×10^6 cells	1.5±0.0
